These results are taken from the supplement of paper PMC11208160.

This data set in a line: recombinant UMI read abundance after kanamycin selection (control-corrected) (log10(CPM+1)); higher = more efficient recombination; extreme values may be limits of the assay; sequences stand for … in AGTGCAGAGAAAATCGGCCAGTTTTCTCTGCCTGCAGTCCGCATGCCGTGGGACCCCTTGGGTTCTAACCTGTTGCCTAGATTTATGCAGCGGACTGCCTTTCTCCCAAAGTGATAAACCGG…AGGTTGGTTTCACT; site = the 11-nt donor. The procedure, abridged:
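Counts of recombinant UMIs were reported as log10(CPM+1). Before that, they were converted to CPM, averaged over replicates and scaled using control-derived factors. They came from PCR across the donor–target junction after Escherichia coli carrying the pair library and target plasmid was plated on IPTG (0.07 mM) plus kanamycin, or unselected, in two replicates each.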
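Note: IS621 bridge recombinase in Escherichia coli cells against a fixed T5 target plasmid.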

Take “TCCACCGCATGGACCGGTTTTCCCGGTAATCCGTATTTGCG (site TCCACCGCTCC)”: the “recombinant UMI read abundance (log10)” value was found to be 0.0232.
Then “TCCACCGCATGGACCGGTTTTCCCGGTAATCCGTATTTGCG (site TCCACCGCTCG)”, with 0.0267.
Then “TCCACCGCATGGACCGGTTTTCCCGGTAATCCGTATTTGCG (site TCCACCGCTCT)”, with 0.0151; and “TCCACCGCATGGACCGGTTTTCCCGGTAATCCGTATTTGCG (site TCCACCGCTGG)”, with 0; and “TCCACCGCATGGACCGGTTTTCCCGGTAATCCGTATTTGCG (site TCCACCGCTTG)”, with 0.
Then “TCCACCGCATGGACCGGTTTTCCCGGTAATCCGTATTTGCG (site TCCACCTCTCG)”, with 0.00739; and “TCCACCGCATGGACCGGTTTTCCCGGTAATCCGTATTTGCG (site TCCACGGCTCG)”, with 0.
Take “TCCACCGCATGGACCGGTTTTCCCGGTAATCCGTATTTGCG (site TCCACTGCTCG)”: the “recombinant UMI read abundance (log10)” value is 0.0248.
Turning to “TCCACCGCATGGACCGGTTTTCCCGGTAATCCGTATTTGCG (site TCCAGCGCTCG)”, the “recombinant UMI read abundance (log10)” value turned out to be 0.0215.
Then “TCCACCGCATGGACCGGTTTTCCCGGTAATCCGTATTTGCG (site TCCATCGCTCG)”, with 0.0351; and “TCCACCGCATGGACCGGTTTTCCCGGTAATCCGTATTTGCG (site TCCCCCGCTCG)”, with 0.1.
Next, “TCCACCGCATGGACCGGTTTTCCCGGTAATCCGTATTTGCG (site TCCGCCGCTCG)”: 0.0234; “TCCACCGCATGGACCGGTTTTCCCGGTAATCCGTATTTGCG (site TCCTCCGCTCG)”: 0.0203.
Next, “TCCACCGCATGGACCGGTTTTCCCGGTAATCCGTATTTGCG (site TCGACCGCTCG)”: 0.023; “TCCACCGCATGGACCGGTTTTCCCGGTAATCCGTATTTGCG (site TCTACCGCTCG)”: 0.0356; “TCCACCGCATGGACCGGTTTTCCCGGTAATCCGTATTTGCG (site TGCACCGCTCG)”: 0.0462.
Consider “TCCACCGCATGGACCGGTTTTCCCGGTAATCCGTATTTGCG (site TTCACCGCTCG)”, for which the “recombinant UMI read abundance (log10)” value is 0.00717.
Next, “TCCACCTCATGGACCGGTTTTCCCGGTAATCCGTATTTGCG (site TCCACCACTCG)”: 0.00715; “TCCACCTCATGGACCGGTTTTCCCGGTAATCCGTATTTGCG (site TCCACCCCTCG)”: 0.0186.
Take “TCCACCTCATGGACCGGTTTTCCCGGTAATCCGTATTTGCG (site TCCACCGCTCG)”: the “recombinant UMI read abundance (log10)” value was 0.0129.
Next, “TCCACCTCATGGACCGGTTTTCCCGGTAATCCGTATTTGCG (site TCCACCTCTCG)”: 0.0255; “TCCACGCCATGGACCGGTTTTCCCGGTAATCCGTATTTGTA (site ACCACGCCTTA)”: 0.0141.
Take “TCCACGCCATGGACCGGTTTTCCCGGTAATCCGTATTTGTA (site CCCACGCCTTA)”: the “recombinant UMI read abundance (log10)” value was found to be 0.038.
Next, “TCCACGCCATGGACCGGTTTTCCCGGTAATCCGTATTTGTA (site GCCACGCCTTA)”: 0.00791; “TCCACGCCATGGACCGGTTTTCCCGGTAATCCGTATTTGTA (site TCCACGCCTTA)”: 0.0284.
Then “TCCACGGCATGGACCGGTTTTCCCGGTAATCCGTATTTGCG (site TCCACAGCTCG)”, with 0.0432; and “TCCACGGCATGGACCGGTTTTCCCGGTAATCCGTATTTGCG (site TCCACCGCTCG)”, with 0.023.
Then “TCCACGGCATGGACCGGTTTTCCCGGTAATCCGTATTTGCG (site TCCACGGCTCG)”, with 0.0249.
Turning to “TCCACGGCATGGACCGGTTTTCCCGGTAATCCGTATTTGCG (site TCCACTGCTCG)”, the “recombinant UMI read abundance (log10)” value stood at 0.
